# From patent US7838271B2, “Microbiological method for producing amides” (priority 2001, dated 2010)
# Read-outs that look alike come from different tables or passages of the source. Marks after values point to notes of the source that are not given here.
# Legend:
# [1] = test system: purified Rhodococcus sp. FZ4 nitrile hydratase; assay: Influence of metal ions on the activity of purified nitrile hydratase; assay type: biochemical; settings: no addition = 100
# Description: A solution comprising nitrile hydratase solution (0.695 μmol/min; 0.025 ml), potassium phosphate buffer (0.1 M; pH 7.0; 0.475 ml), distilled water (0.150 ml) and different potential inhibitors (0.100 ml) was incubated at 20° C. for 5 min. This was followed by the addition of 3-cyanopyridine (1.0 M; 0.250 ml). The concentration of the inhibitors in the reaction mixture was 1.0 mM. The reaction mixture was incubated at 20° C. for 10 min. The reaction was stopped by adding MeOH. The amount of nicotinamide produced was determined by means of HPLC according to Example 1.
# The influence of metal ions on the activity of purified nitrile hydratase was carried out according to Example 24, but with the addition of metal ions instead of potential inhibitors. […]
# [2] = test system: Rhodococcus sp. FZ4 nitrile hydratase; assay: Influence of cofactors on nitrile hydratase activity during cultivation; assay type: cell-based; settings: basal medium with cofactor 0.004 g/l, 28° C., 2 to 3 days; substrate 3-cyanopyridine
# Description: (§1) Nitrile hydratase activity was determined by incubating a reaction mixture comprising 3-cyanopyridine (1.0 M; 1.0 ml), potassium phosphate buffer (0.1 M, pH 7.0; 0.5 ml) and cell suspension (0.5 ml) with stirring at 20° C. for 5 min. The reaction was stopped by adding HCI (5 M; 0.1 ml). After filtration (0.2 μm filter) of the reaction mixture, the amount of nicotinamide produced was determined by means of HPLC (Waters Spherisorb 5 μ ODS2 (4.6×150 mm); KH2P04/H3P04 (10 mM; pH 2.8)/acetonitrile=9:1 (v/v); 1 ml/min; 230 nm). The total activity is expressed as μmol of nicotinamide produced/ (min×ml) and the specific activity is expressed as μmol of nicotinamide produced/(min×ml×OD610 nm).
# The preculture medium of Table 2 was inoculated with strain Rhodococcus sp. FZ4 (DSM 13597), followed by incubation with shaking at 28° C. for 1 to 2 days. The preculture was transferred into the basal medium of Table 3, which contains either CoCl 2 or FeSO4, and cultured with shaking at 28° C. for 2 to 3 days. Nitrile hydratase activity was determined according to Example 1.
# Rhodococcus sp. FZ4 [3] = assay: Influence of cofactors on growth during cultivation; assay type: cell-based; settings: basal medium with cofactor 0.004 g/l, 28° C., 2 to 3 days
# Description: The preculture medium of Table 2 was inoculated with strain Rhodococcus sp. FZ4 (DSM 13597), followed by incubation with shaking at 28° C. for 1 to 2 days. The preculture was transferred into the basal medium of Table 3, which contains either CoCl 2 or FeSO4, and cultured with shaking at 28° C. for 2 to 3 days. Nitrile hydratase activity was determined according to Example 1. A nitrile hydratase activity was present only when culturing Rhodococcus sp. FZ4 in the presence of cobalt.
# [4] = test system: Rhodococcus sp. FZ4 nitrile hydratase; assay type: cell-based
# Description: as §1
# (§2) The preculture medium of Table 2 was inoculated with strain Rhodococcus sp. FZ4 (DSM 13597), followed by incubation with shaking at 28° C. for 1 to 2 days. The preculture was transferred into the culture medium of Table 5, which contained different inducers, and cultured with shaking at 28° C. for 3 days. Nitrile hydratase activity was determined according to Example 1. Rhodococcus sp.
# Rhodococcus sp. FZ4 [5] = assay type: cell-based
# Description: as §2
# [6] = water; cited from earlier work
# [7] = test system: Rhodococcus sp. FZ4 nitrile hydratase; assay: Substrate specificity of nitrile hydratase activity, resting cells; assay type: cell-based
# Description: as §1
# Rhodococcus sp. FZ4 nitrile hydratase activity with respect to different substrates was determined according to Example 1, except that the appropriate substrate was used instead of 3-cyanopyridine and that the HPLC conditions were modified according to the substrate used.
# [8] = test system: Rhodococcus rhodochrous J1 nitrile hydratase; assay: Substrate specificity of nitrile hydratase activity (comparison strain); assay type: cell-based
# [9] = test system: purified Rhodococcus sp. FZ4 nitrile hydratase; assay: Substrate specificity of purified nitrile hydratase; assay type: biochemical
# Description: A reaction mixture comprising nitrile hydratase solution (0.695 μmol/min; 0.025 ml), different substrates (0.500 ml) and potassium phosphate buffer (0.1 M; pH 7.0; 0.475 ml) was incubated at 20° C. for 5 to 10 min. The concentrations of the substrates used were in the range from 0.015 to 0.250 M. The reaction was stopped by adding MeOH. The amount of amide produced was determined by means of HPLC.
# [10] = test system: Rhodococcus sp. FZ4 nitrile hydratase; assay type: cell-based; remark: listed apart in the source
# Description: A reaction mixture comprising acetonitrile (0.2-19.0 M; 1.0-1.6 ml), aqueous NaCl solution (0.85% (w/v); 0.6-0.0 ml), potassium phosphate buffer (0.1 M; pH 7.0; 0.3 ml) and cell suspension (0.1 ml) was incubated with shaking at 20° C. for 10 min. The total reaction volume was 2.0 ml. The reaction was stopped by adding MeOH. The reaction mixture was centrifuged (12 000 rpm, 5 min) and the amount of acetamide produced was determined by means of HPLC according to Example 14.
# [11] = test system: Rhodococcus sp. FZ4 nitrile hydratase; assay type: cell-based; settings: pH 7
# Description: The reaction was stopped by adding MeOH. The reaction mixture was centrifuged (12 000 rpm, 5 min) and the amount of acetamide produced was determined by means of HPLC according to Example 14.
# [12] = test system: purified Rhodococcus sp. FZ4 nitrile hydratase; settings: read-out: KM value for acetonitrile; pH 7
# Description: The reaction mixture was incubated at 20° C. for 10 min. The reaction was stopped by adding methanol and the amount of acetamide produced was determined by means of HPLC according to Example 14.
# [13] = test system: Amycolatopsis sp. NA40 nitrile hydratase; assay: KM value for 3-cyanopyridine, resting cells; assay type: cell-based; settings: 30° C., pH 7.0
# Description: The reaction was stopped by adding HC1(2 M; 0.1 ml).
# FZ4, Rhodococcus sp. GF270 (DSM 12211; WO 99/05306), Amycolatopsis sp. NA40 (DSM 11617; WO 99/05306) and Rhodococcus rhodochrous J1 were determined according to Example 11 using the respective microorganism.
# [14] = test system: Amycolatopsis sp. NA40 nitrile hydratase; assay type: cell-based; settings: incubation for 15 min
# Description: as §1
# (§3) […] The cells were removed, washed and resuspended in potassium phosphate buffer (0.1 M; pH 7.0).
# (§4) The influence of 3-cyanopyridine concentration on the nitrile hydratase activities of Rhodococcus sp. FZ4, Rhodococcus sp. GF270, Amycolatopsis sp. NA40 and Rhodococcus rhodochrous J1 was determined according to Example 9 using the respective microorganism and the 3-cyanopyridine concentrations indicated in Table 10.
# [15] = test system: Rhodococcus sp. FZ4 nitrile hydratase; assay type: cell-based; settings: for Relative activity: incubation for 60 min
# Description: as §1, §3, §4
# [16] = test system: Rhodococcus sp. GF270 nitrile hydratase; assay type: cell-based; settings: incubation for 60 min
# Description: as §1
# A cell suspension was incubated at different 3-cyano-30 pyridine concentrations in the range from 0 to 10% (w/v) at 20° C. for 60 min. The cells were removed, washed and resuspended in potassium phosphate buffer (0.1 M; pH 7.0).
# as §4
# [17] = test system: Rhodococcus rhodochrous J1 nitrile hydratase; assay type: cell-based; settings: incubation for 15 min
# Description: […] The reaction was stopped by adding HCI (5 M; 0.1 ml). After filtration (0.2 μm filter) of the reaction mixture, the amount of nicotinamide produced was determined by means of HPLC (Waters Spherisorb 5 μ ODS2 (4.6×150 mm); KH2P04/H3P04 (10 mM; pH 2.8)/acetonitrile=9:1 (v/v); 1 ml/min; 230 nm). The total activity is expressed as μmol of nicotinamide produced/ (min×ml) and the specific activity is expressed as μmol of nicotinamide produced/(min×ml×OD610 nm).
# as §3, §4
# [18] = test system: purified Rhodococcus sp. FZ4 nitrile hydratase; assay: KM value for 3-cyanopyridine, purified nitrile hydratase; assay type: biochemical; settings: purified enzyme, potassium phosphate buffer pH 7.0, 20° C.
# Description: The reaction mixture was incubated at 20° C. for 10 min. The reaction was stopped by adding methanol and the amount of nicotinamide produced was determined by means of HPLC according to Example 1.
# [19] = culture medium with inducer 0.2% (w/v), 28° C., 3 days, substrate 3-cyanopyridine
# [20] = culture medium with inducer 0.2% (w/v), 28° C., 3 days
compound,measurement,setting,value
O=S(=O)([O-])[O-].[Cu+2] [CuS04],Relative activity,[1]; metal ions 1.0 mM,177%
[Cl-].[Cl-].[Co+2] [CoC12],Specific activity,[2],13.1 μmol/(min × ml × OD610 nm)
same,Total activity,[2],38.1 µmol/min/mL
same,Growth,Rhodococcus sp. FZ4 [3],2.79 OD610 nm
same,Relative activity,[1]; metal ions 1.0 mM,110%
O=[N+]([O-])[O-].[Ag+] [AgNO3],Relative activity,[1]; metal ions 1.0 mM,0%
CC(N)=O [Acetamide],Specific activity,[4]; [19],4.98 μmol/(min × ml × OD610 nm)
same,Total activity,[4]; [19],21.6 µmol/min/mL
same,Growth,Rhodococcus sp. FZ4 [5]; [20],4.37 OD610 nm
same,concentration of an acetamide solution saturated at 30° C.,[6],220-230 g of acetamide in 100 ml of water
[Cl][Fe]([Cl])[Cl] [FeCl3],Relative activity,[1]; metal ions 1.0 mM,105%
[Cl][Hg][Cl] [HgCl2],Relative activity,[1]; metal ions 0.1 mM (footnote b),0%
CC=CC#N [Crotononitrile],Specific activity,[4]; [19],49.4 μmol/(min × ml × OD610 nm)
same,Total activity,[4]; [19],407 µmol/min/mL
same,Growth,Rhodococcus sp. FZ4 [5]; [20],8.24 OD610 nm
same,Relative activity,[7],92.1%
same,Relative activity,[8],78%
same,Relative activity,[9],114%
[Ca+2].[Cl-].[Cl-] [CaCl2],Relative activity,[1]; metal ions 1.0 mM,113%
O=S(=O)([O-])[O-].[Zn+2] [ZnSO4],Relative activity,[1]; metal ions 1.0 mM,121%
[Cl][Ni][Cl] [NiCl2],Relative activity,[1]; metal ions 1.0 mM,123%
[Cl][Mn][Cl] [MnCl2],Relative activity,[1]; metal ions 1.0 mM,123%
CC#N [Acetonitrile],Specific activity,[4],4.13 μmol/(min × ml × OD610 nm)
same,Total activity,[4],18.4 µmol/min/mL
same,Growth,Rhodococcus sp. FZ4 [5],4.46 OD610 nm
same,Relative activity,[7],646%
same,nitrile hydratase activity as a function of acetonitrile concentration,[10],nearly constant
same,nitrile hydratase activity after incubation with acetonitrile,[11],nearly constant
same,Relative activity,[9],1 008%
same,Km,[12],2.84 mM
CCC#N [Propionitrile],Specific activity,[4]; [19],20.3 μmol/(min × ml × OD610 nm)
same,Total activity,[4]; [19],95.8 µmol/min/mL
same,Growth,Rhodococcus sp. FZ4 [5]; [20],4.72 OD610 nm
same,Relative activity,[7],412%
same,Relative activity,[8],435%
same,Relative activity,[9],693%
O=S(=O)([O-])[O-].[Fe+2] [FeSO4],Specific activity,[2],0.346 μmol/(min × ml × OD610 nm)
same,Total activity,[2],0.989 µmol/min/mL
same,Growth,Rhodococcus sp. FZ4 [3],2.86 OD610 nm
same,Relative activity,[1]; metal ions 1.0 mM,113%
N#Cc1cccnc1 [3-Cyanopyridine],Specific activity,[4]; [19],2.21 μmol/(min × ml × OD610 nm)
same,Total activity,[4]; [19],12.3 µmol/min/mL
same,Growth,Rhodococcus sp. FZ4 [5]; [20],5.54 OD610 nm
same,Relative activity,"[7]; compound as substrate, 3-cyanopyridine = 100, resting cells, 20° C.",100%
same,Relative activity,"[8]; compound as substrate, 3-cyanopyridine = 100",100%
same,Km,[13],41.7 mM
same,Relative activity,[14]; 3-cyanopyridine 2.5% (w/v),74^b %
same,Relative activity,[14]; 3-cyanopyridine 5.0% (w/v),56^b %
same,Relative activity,[14]; 3-cyanopyridine 7.5% (w/v),47^b %
same,Relative activity,[14]; 3-cyanopyridine 10.0% (w/v),16^b %
same,nitrile hydratase activity after incubation with 3-cyanopyridine,"[15]; 0 to 20% (w/v) for 60 minutes, 20° C.",corresponded approximately to the original nitrile hydratase activity
same,Relative activity,[15]; 3-cyanopyridine 2.5% (w/v),100^a %
same,Relative activity,[15]; 3-cyanopyridine 5.0% (w/v),100^a %
same,Relative activity,[15]; 3-cyanopyridine 7.5% (w/v),100^a %
same,Relative activity,[15]; 3-cyanopyridine 10.0% (w/v),100^a %
same,Relative activity,[16]; 3-cyanopyridine 2.5% (w/v),100^a %
same,Relative activity,[16]; 3-cyanopyridine 5.0% (w/v),100^a %
same,Relative activity,[16]; 3-cyanopyridine 7.5% (w/v),100^a %
same,Relative activity,[16]; 3-cyanopyridine 10.0% (w/v),100^a %
same,Relative activity,[17]; 3-cyanopyridine 5.0% (w/v),86^b %
same,Relative activity,[17]; 3-cyanopyridine 10.0% (w/v),63^b %
same,Total activity,"[9]; substrate concentration 0.25 M, corresponds to 100%","^aTotal activity: 4,164 μmol/(min × .ml)."
same,Relative activity,"[9]; substrate concentration 0.25 M, reference = 100",100^a %
same,Km,[18],80.5 mM
